Experimental data taken from patent US12268666B2, “Spray-dried dispersions, formulations, and polymorphs of (S)-5-amino-3-(4-((5-fluoro-2-methoxybenzamido)methyl)phenyl)-1-(1,1,1-trifluoropropan-2-yl)-1H-pyrazole-4-carboxamide” (Loxo Oncology, Inc., priority 2018, dated 2025).
Read-outs that look alike come from different tables or passages of the source.

Tests used:
371 kinases = assay: Kinase selectivity assay (Reaction Biology Wild-Type Kinase Profiler); type: biochemical; settings: 1.0 μM compound; ATP close to Km for each enzyme
Description: (§1) Each assay is performed at an ATP concentration close to the Km for each enzyme. […] After co-incubation with a serial dilution of the compound of Formula I, the quantity of ^33P incorporated into a peptide substrate is measured and the data analyzed using standard curve fitting methods.

TMD8 tumor xenografts = assay: Tumor growth in TMD8 human diffuse large B cell lymphoma xenograft model; type: in vivo
Description: The human diffuse large B cell lymphoma TMD8 cells are maintained in suspension in RPMI 1640 with 10% Fetal Calf Serum (FCS) and 1% of Glutamax. The cells are transferred to a 50 mL Falcon tube and centrifuged at 1200 rpm for 5 min. The supernatant is removed and the cell pellet resuspended in PBS before being mixed with Matrigel (1/1, v/v). The cell suspension:Matrigel mixture at a final target cell concentration of 40×10^6 cells/mL is kept on ice until the s.c. injections (250 μL/mouse) to maintain the Matrigel solution in a liquid state.
The animals are female BalB/c mice aged 9 weeks-old at the day of injection. The mice are housed in individually ventilated cage racks with HEPA filtered air supply and all materials that contact the immunodeficient animals are steam sterilized. This includes cages, bedding, water and feed. The animal room conditions are set as follows. The temperature is 22±2° C., and the relative humidity is 50±10%. The light/dark cycle is 12 h/12 h, and the air change rate is 12 to 15 cycles/hour of filtered, 100% fresh air. All animals had free access to sterilized water and irradiated controlled food (reference A04CSafe, Augy-France).
The compound of Formula I is formulated in methylcellulose/Tween80/Water (0.6%/0.5%/98.5%; w/w/v). The vehicle for the dosing of control group is methylcellulose/Tween 80/Water (0.6%/0.5%/98.5%; w/w/v), 10 mL/kg. 151.4 mg of the compound of Formula I are weighed and formulated with 50.4 mL of vehicle to obtain a solution at 3 mg/mL of free base. For the 1 mg/mL suspension preparation, 50.1 mg of the compound of Formula I are weighed and solubilized in 50.1 mL of vehicle. […]
Tumor width and length are measured with digital calipers. The tumor volume in mm^3 is calculated by the formula: Volume=0.52×(width)^2×length[…], width and length measured in mm. […]
Tumors are collected from each mouse at Day 28 post the cell injection. […] Tumor weight statistical analysis between each group is determined by a 1-way ANOVA and by 2-Way ANOVA with repeated measures for the mice weight and the tumor volume monitoring, followed by a Dunnett's test. […]

BTK E41K = molecular target: T1, BTK E41K (Homo sapiens, UniProt Q06187, E41K); assay: BTK activity assay, [33P]-ATP incorporation into poly-EY; type: biochemical; settings: ATP at Km concentration
T1 construct: against full-length wild type (WT) and mutant human BTK enzymes
Description: (§2) The reaction mixtures each contained polyhistidine-tagged BTK enzyme, poly-EY and BTK inhibitor at the appropriate concentrations. The reaction mixtures are incubated for 20 minutes at room temperature after which [[γ-^33P]-ATP (radiochemical concentration 10 μCi/μL) at 10 μM or the ATP Km concentration for each enzyme is added. After 2 hours of incubation at room temperature, the radiolabeled peptide substrate is captured, and incorporated radioactivity is quantified.

BTK P190K = molecular target: T2, BTK P190K (Homo sapiens, UniProt Q06187, P190K); assay: as above; type: biochemical; settings: ATP at Km concentration
T2 construct: against full-length wild type (WT) and mutant human BTK enzymes
Description: as §2

[1] = molecular target: T3, full-length wild type (WT) human BTK (Homo sapiens, UniProt Q06187); assay: as above; type: biochemical
T3 construct: against full-length wild type (WT) and mutant human BTK enzymes
Description: (§3) The activity of the compound of Formula I against full-length wild type (WT) and mutant human BTK enzymes is determined by monitoring the incorporation [^33P]-PO4 from [γ-^33P]-ATP into poly-glutamic acid-tyrosine (poly-EY) peptide substrate. The reaction mixtures each contained polyhistidine-tagged BTK enzyme, poly-EY and BTK inhibitor at the appropriate concentrations. The reaction mixtures are incubated for 20 minutes at room temperature after which [[γ-^33P]-ATP (radiochemical concentration 10 μCi/μL) at 10 μM or the ATP Km concentration for each enzyme is added. After 2 hours of incubation at room temperature, the radiolabeled peptide substrate is captured, and incorporated radioactivity is quantified.
as §1

BTK C481S = BTK C481S (Homo sapiens, UniProt Q06187, C481S); assay: as above; type: biochemical; set-up: against full-length wild type (WT) and mutant human BTK enzymes
Description: as §3, §1

TMD8 cells = assay: BTK-dependent proliferation of TMD8 diffuse large B-cell lymphoma cell line; type: cell-based; settings: Homo sapiens, from AUC of real-time confluence curves, 0.1 to 1,000 nM
Description: The TMD8 cells are maintained in RPMI 1640 (Gibco Catalog #31870-025) with 10% Fetal Calf Serum (FCS), 1% GLUTAMAX™, Non-Essential Amino-Acids and 1 mM sodium pyruvate. The cells are harvested by centrifugation (5 min, 1200 rpm) prior to reaching a concentration of 3×10^6 cells/mL. The medium is removed and cell pellet resuspended in fresh medium before counting with a Cellometer (Nexcelom). TMD8 cells are seeded at 5×10^4 cells/mL in 20 mL of culture medium in a T75 culture flask and held at 37° C. with 5% CO2.
The anti-proliferation activity of the compound of Formula I with TMD8 cells is accessed by the addition of increasing concentrations of inhibitor from 0.1 to 1,000 nM. A dose-dependent inhibition is observed by real-time assessment of TMD8 confluence. Individual curves for each compound of Formula I concentration are represented in the FIG. 12A.

[2] = ATP at Km concentration, read-out: IC50 value

T3 sequence (Q06187 whole entry): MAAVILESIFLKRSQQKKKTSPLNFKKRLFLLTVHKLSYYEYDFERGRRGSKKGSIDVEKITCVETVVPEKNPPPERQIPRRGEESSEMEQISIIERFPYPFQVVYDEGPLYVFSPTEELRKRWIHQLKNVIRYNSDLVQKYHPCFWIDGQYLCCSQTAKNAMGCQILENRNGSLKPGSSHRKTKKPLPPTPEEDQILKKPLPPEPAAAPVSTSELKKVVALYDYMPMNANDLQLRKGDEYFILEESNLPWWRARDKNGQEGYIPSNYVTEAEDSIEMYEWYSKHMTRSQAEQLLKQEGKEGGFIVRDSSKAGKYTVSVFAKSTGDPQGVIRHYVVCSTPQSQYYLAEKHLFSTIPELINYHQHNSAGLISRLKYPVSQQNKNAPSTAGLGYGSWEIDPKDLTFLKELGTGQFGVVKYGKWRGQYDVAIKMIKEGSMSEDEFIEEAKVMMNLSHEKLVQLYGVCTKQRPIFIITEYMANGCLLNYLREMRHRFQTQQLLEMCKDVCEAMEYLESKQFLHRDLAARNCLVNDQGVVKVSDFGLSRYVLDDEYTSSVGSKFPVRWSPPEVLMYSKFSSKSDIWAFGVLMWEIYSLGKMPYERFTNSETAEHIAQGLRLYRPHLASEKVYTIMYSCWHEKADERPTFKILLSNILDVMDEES
BTK C481S, sequence (Q06187 whole entry C481S): as the sequence (Q06187 whole entry) above, with C481S counted along it
T2 sequence (Q06187 whole entry P190K): as the sequence (Q06187 whole entry) above, with P190K counted along it
T1 sequence (Q06187 whole entry E41K): as the sequence (Q06187 whole entry) above, with E41K counted along it

## COc1ccc(F)cc1C(=O)NCc1ccc(-c2nn([C@@H](C)C(F)(F)F)c(N)c2C(N)=O)cc1 [compound of Formula I, (S)-5-amino-3-(4-((5-fluoro-2-methoxybenzamido)methyl)phenyl)-1-(1,1,1-trifluoropropan-2-yl)-1H-pyrazole-4-carboxamide]
371 kinases
  kinases other than BTK with Percent of Control (POC) values less than 50: only eight of 371 kinases other than BTK
TMD8 tumor xenografts; 10 mg/kg oral BID for 14 days
  TGI vs the vehicle treated group: 35%
TMD8 tumor xenografts; 30 mg/kg oral BID for 14 days
  TGI vs the vehicle treated group: 87%
TMD8 tumor xenografts; chronic oral BID administration for 14 days at 10 and 30 mg/kg
  tolerability: well tolerated
BTK E41K
  IC50: 7.85 nM
BTK P190K
  IC50: 2.14 nM
[1]; 10 μM ATP, read-out: IC50
  IC50: 0.95 nM
[1]; [2]
  IC50: 3.15 nM
BTK C481S; 10 μM ATP, read-out: IC50
  IC50: 0.29 nM
BTK C481S; [2]
  IC50: 1.42 nM
TMD8 cells
  IC50: 2.33 nM
